Test results from patent US8470607B2, “Inhibition of angiogenesis” (Morphotek, Inc., priority 2008, dated 2013).

System: VEGF-stimulated angiogenesis
Assay: CAM assay of VEGF-stimulated angiogenesis: intravenous TM-601, comparison and combination with Avastin and Lucentis
Assay type: in vivo, chick
Details: for relative potency of inhibition of VEGF-stimulated angiogenesis, molar basis: TM-601, Avastin and Lucentis compared on a molar basis
Experimental: The CAM assay was performed using two different methods, depending on the contract laboratory where it was performed. At one contract laboratory, fertilized chick eggs were incubated at 37° C. with 55% humidity. Ten days after fertilization, a small hole was punctured with a hypodermic needle in the area of the shell concealing the air sac. A second hole was punctured in the shell on the broadside of the egg directly over an avascular portion of the embryonic membrane. A false air sac was created beneath the second hold by the application of negative pressure to the first hole, which caused the membrane to separate from the shell. A window approximately 1.0 cm^2 in area was cut in the shell over the dropped CAM with the use of a small grinding wheel, allowing direct access to the underlying CAM. Filter disks were soaked in 3 mg/mL rtisone acetate and subsequently air dried under sterile conditions. […] Sterile filter disks with VEGF at 2 μg/mL were placed on the growing CAMs. […] CAMs were harvested on the 3rd day of stimulation. The CAM tissue directly beneath the filter disk was removed from the embryos and tissues were washed three times with PBS. Blood vessel branch points in the 5 m filter disk area were counted at 30× magnification as a quantitative indicator of vascular sprouting in response to the pro-angiogenic compounds. Each egg was analyzed by two different operators and the average reading was reported. The following equation was used to calculate the mean percent angiogenesis inhibition with VEGF-stimulation:
At the second contract laboratory, the CAM assay was performed as follows. Fertilized chicken eggs were incubated at 37.5° C. in a humidified egg incubator with forced air circulation. […] On embryonic day 7, the CAM membranes were examined and quantitatively analyzed for new blood vessel formation after injection of dyed non-fat dry milk solution. The treatment effects on angiogenesis were evaluated by determining vascular density indexed (VDI) on CAMs only with viable chicken embryos. […]

Substance | relative potency of inhibition of VEGF-stimulated angiogenesis, by weight of inhibitor (TM-601, Avastin and Lucentis compared on a mass basis) | relative potency of inhibition of VEGF-stimulated angiogenesis, molar basis
ranabizumab [Lucentis] | most potent | more effective than TM-601
bevacizumab [Avastin] | – | more effective than TM-601
